Assay results: the NIST ThermoML archive (doi:10.1021/je049960h)

Test: xn = mol fraction of the nth substance listed
Conditions: 101.3 kPa, Liquid; for viscosity: Capillary tube (Ostwald / Ubbelohde) method; for mass density: Pycnometric method; for thermal conductivity: Hot wire method

CC(O)COC(C)COC(C)CO (configuration not stated) [2-[2-(2-hydroxypropoxy)propoxy]-1-propanol] + O
Conditions | mass density [kg/m3] | thermal conductivity [W/m/K] | viscosity [mPa·s]
294.8 K, x1 = 0.5 | 1028 | – | 66.6
295.35 K, x1 = 0.75 | 1021 | – | 71.2
295.4 K, x1 = 0.25 | 1037 | – | 36.7
297.3 K, x1 = 0.25 | – | 0.215 | –
297.7 K, x1 = 0.75 | – | 0.157 | –
298.1 K, x1 = 0.5 | – | 0.174 | –
313.05 K, x1 = 0.25 | 1023 | – | 14.2
313.05 K, x1 = 0.5 | 1013 | – | 22.4
313.05 K, x1 = 0.75 | 1007 | – | 24.6
324.3 K, x1 = 0.25 | – | 0.22 | –
325.2 K, x1 = 0.75 | – | 0.156 | –
325.8 K, x1 = 0.5 | – | 0.174 | –
333.05 K, x1 = 0.25 | 1006 | – | 6.27
333.1 K, x1 = 0.5 | 996.8 | – | 9.12
333.1 K, x1 = 0.75 | 990.4 | – | 9.92
349.1 K, x1 = 0.75 | – | 0.156 | –
349.7 K, x1 = 0.25 | – | 0.223 | –
350.2 K, x1 = 0.5 | – | 0.175 | –
353.05 K, x1 = 0.25 | 989 | – | 3.36
353.05 K, x1 = 0.5 | 979.9 | – | 4.5
353.1 K, x1 = 0.75 | 973.7 | – | 4.93
368.25 K, x1 = 0.25 | 975.3 | – | 2.3
368.25 K, x1 = 0.5 | 966.8 | – | 2.96
368.25 K, x1 = 0.75 | 960.5 | – | 3.21
374.1 K, x1 = 0.25 | – | 0.224 | –
375.1 K, x1 = 0.5 | – | 0.172 | –
375.5 K, x1 = 0.75 | – | 0.155 | –
378.15 K, x1 = 0.25 | 966.7 | – | 1.84
378.5 K, x1 = 0.5 | 957.4 | – | 2.32
378.55 K, x1 = 0.75 | 951.3 | – | 2.53
388.4 K, x1 = 0.5 | 947.8 | – | 1.88
388.4 K, x1 = 0.75 | 942.4 | – | 2.03
393.05 K, x1 = 0.25 | 953 | – | –
394.05 K, x1 = 0.5 | 944 | – | –
394.55 K, x1 = 0.25 | – | – | 1.35
395.15 K, x1 = 0.5 | – | – | 1.67
398.35 K, x1 = 0.75 | 933.3 | – | 1.66
398.9 K, x1 = 0.25 | – | 0.222 | –
399 K, x1 = 0.5 | – | 0.172 | –
399.4 K, x1 = 0.75 | – | 0.152 | –
408.3 K, x1 = 0.75 | 924.3 | – | 1.44
408.65 K, x1 = 0.5 | 930.6 | – | –
409.05 K, x1 = 0.25 | 936.6 | – | –
411.65 K, x1 = 0.5 | – | – | 1.26
412.05 K, x1 = 0.25 | – | – | 1.01
412.45 K, x1 = 0.75 | – | – | 1.31
414.15 K, x1 = 0.75 | 918.6 | – | –
422.5 K, x1 = 0.75 | – | 0.15 | –
423 K, x1 = 0.25 | – | 0.22 | –
424.5 K, x1 = 0.5 | – | 0.168 | –
426.65 K, x1 = 0.25 | 918.9 | – | –
426.75 K, x1 = 0.5 | 913.2 | – | –
428.25 K, x1 = 0.75 | – | – | 1.02
429.25 K, x1 = 0.75 | 904.7 | – | –
429.65 K, x1 = 0.25 | – | – | 0.785
429.75 K, x1 = 0.5 | – | – | 0.952
445 K, x1 = 0.75 | 889.5 | – | –
446.15 K, x1 = 0.25 | 897.8 | – | –
446.55 K, x1 = 0.75 | – | – | 0.791
446.85 K, x1 = 0.5 | 892.5 | – | –
448.2 K, x1 = 0.25 | – | 0.213 | –
448.3 K, x1 = 0.5 | – | 0.164 | –
449 K, x1 = 0.75 | – | 0.144 | –
449.15 K, x1 = 0.25 | – | – | 0.615
449.85 K, x1 = 0.5 | – | – | 0.738
